Values of other authors as cited in PMC10686834, “Targeting myeloid chemotaxis to reverse prostate cancer therapy resistance” (Nature, 2023).
Like-named read-outs stand apart in the source and are kept apart here.

What was measured:
[1] = test system: mCRPC patients; set-up: method as in ref (10) (a number printed in a supplementary file, which may have a reference list of its own: not looked up in the article's list); conditions: ref (10), cited from earlier work
[2] = set-up: method as in U.S enzalutamide Full Prescribing Information; conditions: ref U.S enzalutamide Full Prescribing Information, cited from earlier work
[3] = test system: CYP2C19; set-up: method as in U.S enzalutamide Full Prescribing Information; conditions: steady state; ref U.S enzalutamide Full Prescribing Information; cited from earlier work
[4] = test system: CYP3A4; set-up: method as in U.S enzalutamide Full Prescribing Information; conditions: single 160mg oral dose after multiple oral doses of itraconazole; ref U.S enzalutamide Full Prescribing Information; cited from earlier work
[5] = test system: patients with progressive castration resistant prostate cancer previously treated with docetaxel; set-up: method as in ref (8) (a number printed in a supplementary file, which may have a reference list of its own: not looked up in the article's list); conditions: AFFIRM, ref (8), cited from earlier work
[6] = test system: chemotherapy naïve patients with progressive metastatic prostate cancer; set-up: method as in ref (17) (a number printed in a supplementary file, which may have a reference list of its own: not looked up in the article's list); conditions: PREVAIL, ref (17), cited from earlier work
[7] = test system: CYP3A4; set-up: method as in U.S enzalutamide Full Prescribing Information; conditions: steady state; ref U.S enzalutamide Full Prescribing Information; cited from earlier work
[8] = test system: CYP2C9; set-up: method as in U.S enzalutamide Full Prescribing Information; conditions: steady state; ref U.S enzalutamide Full Prescribing Information; cited from earlier work

Structure (SMILES): C[C@]12CC[C@H](O)CC1=CC[C@@H]1[C@@H]2CC[C@]2(C)C(c3cccnc3)=CC[C@@H]12 [abiraterone]
- patients responding to abiraterone (PSA decline ≥50% below baseline maintained for ≥3 weeks) ([1]; patients with an NLR > 5): 16%
- patients responding to abiraterone (PSA decline ≥50% below baseline maintained for ≥3 weeks) ([1]; patients with an NLR ≤ 5): 49%

Structure (SMILES): CNC(=O)c1ccc(N2C(=S)N(c3ccc(C#N)c(C(F)(F)F)c3)C(=O)C2(C)C)cc1F [enzalutamide]
- time to maximum plasma concentration (tmax) ([2]; after a single oral dose): 1 h
- time to reach steady state concentrations ([2]; daily oral administration): approximately 1 month
- average difference between peak (Cmax) and trough (Cmin) concentrations ([2]; steady state): 25%
- CYP2C19 induction in humans [3]: moderate
- increase of AUC0-inf of enzalutamide plus N-desmethyl-enzalutamide [4]: 1.3 fold
- median overall survival ([5]; enzalutamide group (800 patients)): 18.4 months
- incidence of grade 3 adverse events ([5]; enzalutamide group): 45.3%
- HR, radiographic progression-free survival ([5]; enzalutamide vs placebo): 0.40
- HR, time to PSA progression ([5]; enzalutamide vs placebo): 0.25
- HR, time to first skeletal-related event ([5]; enzalutamide vs placebo): 0.69
- quality of life response rate ([5]; enzalutamide): 43%
- radiographic progression-free survival ([5]; enzalutamide): 8.3 months
- reduction in PSA level by 50% or more ([5]; enzalutamide): 54%
- soft tissue response rate ([5]; enzalutamide): 29%
- time to PSA progression ([5]; enzalutamide): 8.3 months
- time to first skeletal-related event ([5]; enzalutamide): 16.7 months
- liver-function abnormalities reported as adverse events ([5]; patients receiving enzalutamide): 1%
- grade 3 or higher adverse events ([6]; enzalutamide group): 43%
- hypertension, grade 3 or higher ([6]; enzalutamide group): 7%
- patients alive at time of analysis ([6]; enzalutamide group): 72%
- rate of radiographic progression-free survival at 12 months ([6]; enzalutamide group): 65%
- HR, radiographic progression-free survival ([6]; enzalutamide vs placebo): 0.19
- HR, survival ([6]; enzalutamide vs placebo): 0.71
- HR, time to PSA progression ([6]; enzalutamide vs placebo): 0.17
- HR, time to initiation of cytotoxic therapy ([6]; enzalutamide vs placebo): 0.35
- HR, time until the first skeletal-related event ([6]; enzalutamide vs placebo): 0.72
- complete/partial soft tissue response ([6]; enzalutamide): 59%
- reduction in PSA level by 50% or more ([6]; enzalutamide): 78%
- CYP3A4 induction in humans [7]: strong
- CYP2C9 induction in humans [8]: moderate
